Source: PMC7118841 (Biomedicine & Pharmacotherapy, 2006)
Read-outs that look alike come from different tables or passages of the source.

What was measured:
[1] = test system: FluV A R-1 (HA Lys189Asn, Ile202Thr); conditions: read-out: EC50, Plaque reduction; strain R-1; cited from earlier work
[2] = test system: Ishikawa/AH3N2/(plaque purified) strain; conditions: read-out: EC50, Plaque reduction; Parent strain; cited from earlier work
FluV A [3] = conditions: read-out: EC50, FluV A; MTT method; cited from earlier work
[4] = test system: FluV A (N3H2/Ishikawa and H1N1/PR8); conditions: rhodamine-labeled virus, MDCK cells; 10 and 25 μM; cited from earlier work
PfluV 2 = conditions: read-out: EC50, PfluV 2; MTT method; cited from earlier work
FluV A (H1N1/PR8) = conditions: cited from earlier work
[5] = test system: FluV A R-4 (HA Ile202Thr); conditions: read-out: EC50, MTT; strain R-4; cited from earlier work
[6] = test system: FluV A R-c (HA Lys189Asn, Ile202Val); conditions: read-out: EC50, Plaque reduction; strain R-c; cited from earlier work
FluV A [7] = conditions: read-out: EC50 against FluV A; cited from earlier work
[8] = test system: FluV A R-c (HA Lys189Asn, Ile202Val); conditions: read-out: EC50, MTT; strain R-c; cited from earlier work
RSV = conditions: read-out: EC50, RSV; MTT method; cited from earlier work
[9] = test system: FluV A R-b (HA Lys189Asn); conditions: read-out: EC50, Plaque reduction; strain R-b; cited from earlier work
[10] = test system: Ishikawa/AH3N2/(plaque purified) strain; conditions: read-out: EC50, MTT; Parent strain; cited from earlier work
[11] = test system: FluV A R-b (HA Lys189Asn); conditions: read-out: EC50, MTT; strain R-b; cited from earlier work
SARS-V = type: cell-based, SARS coronavirus; conditions: read-out: EC50, SARS-V
[12] = test system: FluV A R-1 (HA Lys189Asn, Ile202Thr); conditions: read-out: EC50, MTT; strain R-1; cited from earlier work
CDV = conditions: read-out: EC50, CDV; plaque reduction method; cited from earlier work
DFV = conditions: cited from earlier work
TGEV = type: cell-based, transmissible gastroenteritis virus of swine; conditions: read-out: EC50, TGEV
[13] = test system: FluV A R-2 (HA Ile202Thr); conditions: read-out: EC50, MTT; strain R-2; cited from earlier work
MDCK cells = conditions: cited from earlier work
FIPV = type: cell-based, feline infectious peritonitis virus; conditions: read-out: EC50, FIPV
[14] = test system: FluV A R-4 (HA Ile202Thr); conditions: read-out: EC50, Plaque reduction; strain R-4; cited from earlier work
HIV-1 = conditions: read-out: EC50, HIV-1; MTT method; cited from earlier work
[15] = test system: FluV A R-2 (HA Ile202Thr); conditions: read-out: EC50, Plaque reduction; strain R-2; cited from earlier work

In the case of (iPrNH3)6H[PTi2W10O38(O2)2]H2O [PM-523], the EC50 [1] is listed as 74.5 ± 10.2 µM, the EC50 [2] is listed as 6.6 ± 0.8 µM and the EC50 (FluV A [3]) is listed as 5.6 ± 2 µM. For the same substance, the “dequenching of fluorescence (fusion of FluV A envelope with cell membrane)” value [4] was “remarkably reduced”, the EC50 (PfluV 2) was 2.5 ± 1.3 µM and the “appearance of lungs of infected mice” value (FluV A (H1N1/PR8); 2.4 mM PM-523 alone, data not shown) was “swollen and reddened due to congestion”. For the same substance, the “mice survived on the 9th day” value (FluV A (H1N1/PR8); 4.8 mM PM-523 aerosol every 12 hours for 4 days, 10 LD50 FluV A) was “half”, the “survival at 14 days after the infection” value (FluV A (H1N1/PR8); 4.8 mM PM-523 alone) was 20% and the EC50 [5] was 79 ± 10.2 µM. The EC50 [6] was 78.9 ± 9.4 µM, the EC50 (FluV A [7]) was 2.4 µM and the EC50 [8] was 80.3 ± 6.8 µM. The EC50 (RSV) was 1.3 ± 0.5 µM, the EC50 [9] was 66.7 ± 6.2 µM and the EC50 [10] was 8.7 ± 1.2 µM. For the same substance, the EC50 [11] was 63 ± 7 µM, the EC50 (SARS-V) was over 50 µM and the EC50 [12] was 71.4 ± 6.8 µM. For the same substance, the EC50 (CDV) was 7.3 ± 1.1 µM, the “antiviral activity against DFV” value (DFV) was “did not have antiviral activities” and the EC50 (DFV; read-out: EC50, DFV, MTT method) was over 61.5 µM. For the same substance, the EC50 (TGEV) was 2.5 ± 0.6 µM, the EC50 [13] was 67.8 ± 6.5 µM and the “Percent viability of cells” value (MDCK cells; single compound at 100 μM, untreated cells = 100%) was 81.1 ± 2.9%. For the same substance, the “Percent viability of cells” value (MDCK cells; single compound at 200 μM) was 89.3 ± 5.8%, the “Percent viability of cells” value (MDCK cells; single compound at 400 μM) was 85.2 ± 3.5% and the EC50 (FIPV) was over 32 µM. For the same substance, the EC50 [14] was 88.1 ± 9.9 µM, the EC50 (HIV-1) was 0.3 ± 0.1 µM and the EC50 [15] was 73.6 ± 10.8 µM.
